The source of these data is ChEMBL document CHEMBL4715706, “Discovery of Benzotriazolo[4,3-d][1,4]diazepines as Orally Active Inhibitors of BET Bromodomains” (ACS Med Chem Lett, 2016).

Where only a bound is given, the exact number is not on record here.

Data set [1] in a line: Clearance in rat at 1 mg/kg, iv relative to liver blood flow. The settings on record: in vivo. The format is ADME, organism-based.
For data set [2], the target named is SWI/SNF-related matrix-associated actin-dependent regulator of chromatin subfamily A member 4 (Homo sapiens, UniProt P51532). Briefly: Inhibition of His-tagged BRG1 (unknown origin) using biotinylated acetylated peptide as substrate measured after 20 mins by AlphaLISA assay.
SWI/SNF-related matrix-associated actin-dependent regulator of chromatin subfamily A member 4, sequence (P51532 whole entry): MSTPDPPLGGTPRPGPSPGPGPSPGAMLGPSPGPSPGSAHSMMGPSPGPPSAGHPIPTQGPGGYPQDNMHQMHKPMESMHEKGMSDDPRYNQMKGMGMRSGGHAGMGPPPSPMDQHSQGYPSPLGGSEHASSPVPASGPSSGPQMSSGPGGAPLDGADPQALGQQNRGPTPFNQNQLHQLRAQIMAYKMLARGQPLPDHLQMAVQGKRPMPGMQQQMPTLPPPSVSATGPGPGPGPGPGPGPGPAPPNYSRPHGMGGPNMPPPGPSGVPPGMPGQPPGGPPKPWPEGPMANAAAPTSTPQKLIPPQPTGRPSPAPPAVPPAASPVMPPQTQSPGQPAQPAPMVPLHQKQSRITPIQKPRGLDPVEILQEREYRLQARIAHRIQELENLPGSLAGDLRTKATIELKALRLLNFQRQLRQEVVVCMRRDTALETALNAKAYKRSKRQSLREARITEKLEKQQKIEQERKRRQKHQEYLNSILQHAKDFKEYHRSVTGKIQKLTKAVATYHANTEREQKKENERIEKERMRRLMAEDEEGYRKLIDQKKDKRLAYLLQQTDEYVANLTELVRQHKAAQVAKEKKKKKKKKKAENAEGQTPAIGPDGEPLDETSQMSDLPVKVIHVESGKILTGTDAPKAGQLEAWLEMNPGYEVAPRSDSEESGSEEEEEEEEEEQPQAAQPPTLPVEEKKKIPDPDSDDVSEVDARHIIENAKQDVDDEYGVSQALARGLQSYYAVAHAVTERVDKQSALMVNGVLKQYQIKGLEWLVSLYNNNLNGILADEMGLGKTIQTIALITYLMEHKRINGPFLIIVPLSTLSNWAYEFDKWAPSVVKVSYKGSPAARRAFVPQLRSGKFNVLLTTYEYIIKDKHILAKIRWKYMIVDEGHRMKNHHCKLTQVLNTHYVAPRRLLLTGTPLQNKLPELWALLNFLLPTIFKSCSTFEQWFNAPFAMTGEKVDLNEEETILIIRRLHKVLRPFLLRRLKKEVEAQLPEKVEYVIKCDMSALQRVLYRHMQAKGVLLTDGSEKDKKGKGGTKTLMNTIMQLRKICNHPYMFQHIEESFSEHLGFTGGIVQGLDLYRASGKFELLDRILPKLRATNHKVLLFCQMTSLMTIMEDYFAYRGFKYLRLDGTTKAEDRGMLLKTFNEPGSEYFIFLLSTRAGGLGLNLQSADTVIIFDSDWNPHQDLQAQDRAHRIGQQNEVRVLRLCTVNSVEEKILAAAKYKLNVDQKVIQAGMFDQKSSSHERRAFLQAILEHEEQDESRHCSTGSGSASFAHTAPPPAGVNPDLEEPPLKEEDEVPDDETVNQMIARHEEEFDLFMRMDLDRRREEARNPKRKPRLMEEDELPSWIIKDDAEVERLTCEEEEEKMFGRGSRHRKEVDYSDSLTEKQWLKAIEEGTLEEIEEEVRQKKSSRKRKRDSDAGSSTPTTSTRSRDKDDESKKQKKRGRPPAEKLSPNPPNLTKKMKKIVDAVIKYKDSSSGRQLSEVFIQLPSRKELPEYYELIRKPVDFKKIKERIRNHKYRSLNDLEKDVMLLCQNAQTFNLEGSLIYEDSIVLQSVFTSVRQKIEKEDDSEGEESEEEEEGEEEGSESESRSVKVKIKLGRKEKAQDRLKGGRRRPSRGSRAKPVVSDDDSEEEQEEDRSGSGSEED
Data set [3] deals with Bromodomain testis-specific protein (Homo sapiens, UniProt Q58F21). Briefly: Inhibition of BRDT BD1 (unknown origin) using biotinylated JQ1 analog as substrate measured after 20 mins by AlphaLISA assay.
In data set [4] the target is T1, ATPase family AAA domain-containing protein 2 (Homo sapiens, UniProt Q6PL18).
T1 sequence (Q6PL18 whole entry): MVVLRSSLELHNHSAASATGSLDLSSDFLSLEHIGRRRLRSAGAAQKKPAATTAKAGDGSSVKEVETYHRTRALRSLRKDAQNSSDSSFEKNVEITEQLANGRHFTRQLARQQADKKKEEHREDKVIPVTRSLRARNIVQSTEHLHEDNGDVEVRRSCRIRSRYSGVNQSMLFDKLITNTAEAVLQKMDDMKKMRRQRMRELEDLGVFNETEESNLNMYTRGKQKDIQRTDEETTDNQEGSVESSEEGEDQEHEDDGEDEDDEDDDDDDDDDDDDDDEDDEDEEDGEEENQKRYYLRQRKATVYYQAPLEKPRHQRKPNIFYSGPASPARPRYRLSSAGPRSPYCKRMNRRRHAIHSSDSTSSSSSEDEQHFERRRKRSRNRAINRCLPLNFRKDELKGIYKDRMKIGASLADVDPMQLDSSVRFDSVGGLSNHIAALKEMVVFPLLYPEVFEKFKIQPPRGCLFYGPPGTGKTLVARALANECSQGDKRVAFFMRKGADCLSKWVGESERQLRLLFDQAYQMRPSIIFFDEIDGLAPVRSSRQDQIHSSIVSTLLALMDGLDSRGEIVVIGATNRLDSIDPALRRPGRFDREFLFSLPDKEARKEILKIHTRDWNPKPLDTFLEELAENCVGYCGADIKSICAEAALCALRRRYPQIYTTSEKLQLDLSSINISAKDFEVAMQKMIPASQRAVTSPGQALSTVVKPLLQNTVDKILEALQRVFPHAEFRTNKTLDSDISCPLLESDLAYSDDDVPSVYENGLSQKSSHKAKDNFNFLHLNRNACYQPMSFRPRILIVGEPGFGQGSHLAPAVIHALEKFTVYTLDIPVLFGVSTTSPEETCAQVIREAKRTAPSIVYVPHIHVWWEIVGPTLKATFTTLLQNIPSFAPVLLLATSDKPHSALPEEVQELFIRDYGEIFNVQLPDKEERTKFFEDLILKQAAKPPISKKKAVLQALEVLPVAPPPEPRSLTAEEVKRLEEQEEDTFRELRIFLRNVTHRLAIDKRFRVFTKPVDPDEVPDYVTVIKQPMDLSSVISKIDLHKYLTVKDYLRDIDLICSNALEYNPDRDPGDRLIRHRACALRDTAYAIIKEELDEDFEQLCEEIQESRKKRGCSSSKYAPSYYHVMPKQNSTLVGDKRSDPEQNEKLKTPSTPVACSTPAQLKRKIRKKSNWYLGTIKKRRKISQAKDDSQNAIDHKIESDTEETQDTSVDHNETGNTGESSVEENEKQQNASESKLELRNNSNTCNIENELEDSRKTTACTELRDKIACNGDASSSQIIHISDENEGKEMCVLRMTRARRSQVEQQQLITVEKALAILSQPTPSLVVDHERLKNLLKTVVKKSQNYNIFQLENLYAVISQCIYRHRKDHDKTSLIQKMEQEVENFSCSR
Briefly: Inhibition of His-tagged ATAD2 (unknown origin) using biotinylated acetylated peptide as substrate measured after 20 mins by AlphaLISA assay.

Data set [5] concerns the target T2, Bromodomain-containing protein 9 (Homo sapiens, UniProt Q9H8M2).
T2 sequence (Q9H8M2 whole entry): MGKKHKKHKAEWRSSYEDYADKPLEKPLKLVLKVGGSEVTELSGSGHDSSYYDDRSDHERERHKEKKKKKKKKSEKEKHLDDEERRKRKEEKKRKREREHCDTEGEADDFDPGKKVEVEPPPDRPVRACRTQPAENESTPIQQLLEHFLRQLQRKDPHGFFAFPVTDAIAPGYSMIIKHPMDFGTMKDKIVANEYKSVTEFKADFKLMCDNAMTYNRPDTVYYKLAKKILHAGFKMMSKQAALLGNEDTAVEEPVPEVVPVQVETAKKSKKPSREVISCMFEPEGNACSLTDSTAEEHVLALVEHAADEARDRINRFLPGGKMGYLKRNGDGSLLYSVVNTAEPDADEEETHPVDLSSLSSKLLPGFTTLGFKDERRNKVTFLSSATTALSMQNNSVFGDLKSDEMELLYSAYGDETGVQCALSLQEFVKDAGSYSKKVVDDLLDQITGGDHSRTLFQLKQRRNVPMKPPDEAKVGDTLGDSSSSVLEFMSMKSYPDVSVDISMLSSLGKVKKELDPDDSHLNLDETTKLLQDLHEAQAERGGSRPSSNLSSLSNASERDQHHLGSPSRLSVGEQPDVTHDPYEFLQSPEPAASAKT
Briefly: Inhibition of His-tagged BRD9 (unknown origin) using biotinylated acetylated peptide as substrate measured after 20 mins by AlphaLISA assay.

The nature of data set [6]: Protein binding in mouse plasma.
Data set [7] has as its target Bromodomain-containing protein 3 (Homo sapiens, UniProt Q15059). As to the kind of experiment: Inhibition of BRD3 BD1 (unknown origin) using biotinylated JQ1 analog as substrate measured after 20 mins by AlphaLISA assay.

Bromodomain-containing protein 3, sequence (Q15059 whole entry): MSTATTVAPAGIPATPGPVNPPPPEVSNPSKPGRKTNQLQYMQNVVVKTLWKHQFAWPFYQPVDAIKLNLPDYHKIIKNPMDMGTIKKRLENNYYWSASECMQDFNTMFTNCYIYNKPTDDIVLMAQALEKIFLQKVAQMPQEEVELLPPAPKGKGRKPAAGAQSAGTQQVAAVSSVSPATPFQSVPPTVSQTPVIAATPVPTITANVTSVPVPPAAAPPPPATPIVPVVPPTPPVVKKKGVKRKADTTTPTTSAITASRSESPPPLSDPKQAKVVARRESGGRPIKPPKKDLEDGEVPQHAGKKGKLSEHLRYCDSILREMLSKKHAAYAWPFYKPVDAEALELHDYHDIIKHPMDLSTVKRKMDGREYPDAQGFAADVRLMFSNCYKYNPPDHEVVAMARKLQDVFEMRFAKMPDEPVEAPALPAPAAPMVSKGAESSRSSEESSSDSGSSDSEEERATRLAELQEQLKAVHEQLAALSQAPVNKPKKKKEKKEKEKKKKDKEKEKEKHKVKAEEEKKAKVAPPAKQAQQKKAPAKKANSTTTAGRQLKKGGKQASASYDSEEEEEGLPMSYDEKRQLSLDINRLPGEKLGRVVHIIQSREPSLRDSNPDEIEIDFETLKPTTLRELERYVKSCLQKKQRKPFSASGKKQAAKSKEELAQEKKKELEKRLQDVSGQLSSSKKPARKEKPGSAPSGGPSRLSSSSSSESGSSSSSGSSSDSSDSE

As to `Cc1nnc2n1-c1ccc(-c3ccc(N)nc3)cc1N(c1ccc(Cl)cc1)C[C@H]2C`, in data set [1], the CL is on record as 90%. The IC50 was more than 15000 nM in data set [2]; 3 nM in data set [3]; more than 15000 nM in data set [4]; more than 15000 nM in data set [5]; 3 nM in data set [7]. Besides, the fraction unbound in data set [6] is 0.02.
